Values belong to the molecule of their own block, whether it stands above or below them.
How the values were obtained:
[1] = biological target: T1, Muscarinic acetylcholine receptor M1 (Homo sapiens, UniProt P11229); assay type: functional, cell-based
T1 sequence (P11229 whole entry): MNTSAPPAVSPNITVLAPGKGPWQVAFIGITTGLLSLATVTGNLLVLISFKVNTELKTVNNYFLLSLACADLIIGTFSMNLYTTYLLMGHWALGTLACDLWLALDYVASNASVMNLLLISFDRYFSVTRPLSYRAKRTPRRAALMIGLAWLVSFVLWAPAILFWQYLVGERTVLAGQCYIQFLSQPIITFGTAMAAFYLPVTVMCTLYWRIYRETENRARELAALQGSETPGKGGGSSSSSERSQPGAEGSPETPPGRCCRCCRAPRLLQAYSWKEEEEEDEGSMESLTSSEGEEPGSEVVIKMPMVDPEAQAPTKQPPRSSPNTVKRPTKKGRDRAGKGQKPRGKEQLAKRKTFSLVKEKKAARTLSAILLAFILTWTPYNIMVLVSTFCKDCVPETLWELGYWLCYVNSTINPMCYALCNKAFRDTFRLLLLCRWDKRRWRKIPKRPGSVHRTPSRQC

Estrogen receptor = biological target: T2, Estrogen receptor (Homo sapiens, UniProt P03372)
T2 sequence (P03372 whole entry): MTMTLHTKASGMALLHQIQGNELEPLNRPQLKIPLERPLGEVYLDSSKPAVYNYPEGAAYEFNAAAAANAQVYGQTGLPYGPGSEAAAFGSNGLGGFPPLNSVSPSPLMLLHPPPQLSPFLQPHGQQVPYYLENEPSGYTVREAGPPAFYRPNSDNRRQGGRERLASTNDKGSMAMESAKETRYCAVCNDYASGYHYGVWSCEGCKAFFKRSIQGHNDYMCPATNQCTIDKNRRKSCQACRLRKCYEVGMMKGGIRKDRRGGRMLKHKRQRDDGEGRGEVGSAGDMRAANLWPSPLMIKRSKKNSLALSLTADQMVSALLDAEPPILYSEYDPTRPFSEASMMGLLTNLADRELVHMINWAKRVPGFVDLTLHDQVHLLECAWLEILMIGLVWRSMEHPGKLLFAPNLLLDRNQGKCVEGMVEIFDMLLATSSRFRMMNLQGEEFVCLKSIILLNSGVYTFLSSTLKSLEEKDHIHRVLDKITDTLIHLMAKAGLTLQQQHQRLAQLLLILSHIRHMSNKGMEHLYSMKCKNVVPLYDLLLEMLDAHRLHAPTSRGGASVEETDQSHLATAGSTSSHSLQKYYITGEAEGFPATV

[2] = biological target: T3, 5-hydroxytryptamine receptor 1A (Homo sapiens, UniProt P08908); assay type: functional, cell-based
T3 sequence (P08908 whole entry): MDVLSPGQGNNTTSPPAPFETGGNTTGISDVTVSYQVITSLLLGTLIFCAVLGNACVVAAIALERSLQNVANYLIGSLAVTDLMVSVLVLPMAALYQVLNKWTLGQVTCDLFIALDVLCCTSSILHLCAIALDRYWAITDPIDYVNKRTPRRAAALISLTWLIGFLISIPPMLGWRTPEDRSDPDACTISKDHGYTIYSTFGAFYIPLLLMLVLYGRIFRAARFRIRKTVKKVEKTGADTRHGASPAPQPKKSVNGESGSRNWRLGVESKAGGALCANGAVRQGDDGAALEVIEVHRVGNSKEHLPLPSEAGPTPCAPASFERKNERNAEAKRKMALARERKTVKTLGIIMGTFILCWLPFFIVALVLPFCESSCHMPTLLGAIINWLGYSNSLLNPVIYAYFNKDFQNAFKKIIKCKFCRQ

[3] = biological target: Sodium-dependent dopamine transporter (Homo sapiens, UniProt Q01959)
Sodium-dependent dopamine transporter, sequence (Q01959 whole entry): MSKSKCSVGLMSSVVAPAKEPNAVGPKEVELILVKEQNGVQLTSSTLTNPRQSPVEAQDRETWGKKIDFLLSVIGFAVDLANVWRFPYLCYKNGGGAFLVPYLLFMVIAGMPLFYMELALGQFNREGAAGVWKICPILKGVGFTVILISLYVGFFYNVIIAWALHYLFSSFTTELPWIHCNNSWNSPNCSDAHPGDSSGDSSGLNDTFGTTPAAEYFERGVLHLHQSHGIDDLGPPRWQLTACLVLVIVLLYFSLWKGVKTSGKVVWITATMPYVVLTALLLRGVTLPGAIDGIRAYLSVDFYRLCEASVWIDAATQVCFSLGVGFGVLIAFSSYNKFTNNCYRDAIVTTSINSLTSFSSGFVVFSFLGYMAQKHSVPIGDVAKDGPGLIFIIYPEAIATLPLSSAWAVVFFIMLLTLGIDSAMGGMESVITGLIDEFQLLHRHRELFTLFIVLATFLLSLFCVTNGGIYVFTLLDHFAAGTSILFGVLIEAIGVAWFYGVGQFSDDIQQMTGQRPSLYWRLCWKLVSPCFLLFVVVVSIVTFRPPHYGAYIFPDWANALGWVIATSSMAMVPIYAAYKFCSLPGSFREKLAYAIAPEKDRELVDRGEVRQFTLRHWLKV

[4] = biological target: T4, Alpha-2C adrenergic receptor (Homo sapiens, UniProt P18825); assay type: functional
T4 sequence (P18825 whole entry): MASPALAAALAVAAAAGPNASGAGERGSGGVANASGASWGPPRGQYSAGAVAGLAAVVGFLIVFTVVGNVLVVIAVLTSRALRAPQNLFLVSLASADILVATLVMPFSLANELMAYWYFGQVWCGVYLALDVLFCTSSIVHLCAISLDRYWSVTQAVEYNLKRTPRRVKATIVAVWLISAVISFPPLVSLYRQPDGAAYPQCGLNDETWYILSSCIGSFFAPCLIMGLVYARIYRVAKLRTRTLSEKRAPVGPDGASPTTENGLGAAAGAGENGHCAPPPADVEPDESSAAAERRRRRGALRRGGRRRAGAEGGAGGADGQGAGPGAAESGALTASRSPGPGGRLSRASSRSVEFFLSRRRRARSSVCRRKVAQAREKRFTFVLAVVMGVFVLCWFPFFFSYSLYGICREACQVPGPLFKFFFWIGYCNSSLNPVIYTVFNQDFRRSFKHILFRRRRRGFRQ

[5] = biological target: cGMP-inhibited 3',5'-cyclic phosphodiesterase 3A (Homo sapiens, UniProt Q14432); assay type: functional
cGMP-inhibited 3',5'-cyclic phosphodiesterase 3A, sequence (Q14432 whole entry): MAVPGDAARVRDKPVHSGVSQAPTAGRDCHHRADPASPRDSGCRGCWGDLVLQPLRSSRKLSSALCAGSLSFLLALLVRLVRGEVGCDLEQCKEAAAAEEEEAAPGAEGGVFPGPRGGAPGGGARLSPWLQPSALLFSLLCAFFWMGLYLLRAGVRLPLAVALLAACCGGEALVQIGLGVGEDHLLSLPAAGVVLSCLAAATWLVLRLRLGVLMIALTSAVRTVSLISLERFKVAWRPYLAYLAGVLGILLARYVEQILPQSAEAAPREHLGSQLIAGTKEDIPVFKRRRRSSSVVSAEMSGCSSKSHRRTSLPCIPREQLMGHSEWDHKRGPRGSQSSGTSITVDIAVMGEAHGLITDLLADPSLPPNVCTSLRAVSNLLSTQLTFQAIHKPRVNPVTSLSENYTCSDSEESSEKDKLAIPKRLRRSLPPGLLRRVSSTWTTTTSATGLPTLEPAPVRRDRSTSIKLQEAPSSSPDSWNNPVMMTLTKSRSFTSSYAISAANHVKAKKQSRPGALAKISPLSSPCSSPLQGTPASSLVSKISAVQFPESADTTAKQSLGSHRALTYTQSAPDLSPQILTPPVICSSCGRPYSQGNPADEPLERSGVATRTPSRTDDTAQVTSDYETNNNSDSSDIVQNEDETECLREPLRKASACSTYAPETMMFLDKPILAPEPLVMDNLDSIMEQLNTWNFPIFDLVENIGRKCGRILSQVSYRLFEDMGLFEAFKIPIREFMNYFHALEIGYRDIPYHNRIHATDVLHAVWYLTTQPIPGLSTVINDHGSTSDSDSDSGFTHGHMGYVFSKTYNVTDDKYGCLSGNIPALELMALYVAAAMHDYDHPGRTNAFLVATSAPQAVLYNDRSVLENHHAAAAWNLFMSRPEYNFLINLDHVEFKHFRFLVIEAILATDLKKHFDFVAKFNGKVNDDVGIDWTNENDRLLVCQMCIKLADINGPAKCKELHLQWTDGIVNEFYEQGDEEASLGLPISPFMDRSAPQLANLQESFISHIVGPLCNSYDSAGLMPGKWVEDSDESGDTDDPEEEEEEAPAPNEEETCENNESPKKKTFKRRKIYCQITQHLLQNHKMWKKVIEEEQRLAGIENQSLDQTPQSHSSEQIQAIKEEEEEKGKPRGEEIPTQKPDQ

[6] = biological target: T5, Alpha-1A adrenergic receptor (Homo sapiens, UniProt P35348); assay type: functional, cell-based
T5 sequence (P35348 whole entry): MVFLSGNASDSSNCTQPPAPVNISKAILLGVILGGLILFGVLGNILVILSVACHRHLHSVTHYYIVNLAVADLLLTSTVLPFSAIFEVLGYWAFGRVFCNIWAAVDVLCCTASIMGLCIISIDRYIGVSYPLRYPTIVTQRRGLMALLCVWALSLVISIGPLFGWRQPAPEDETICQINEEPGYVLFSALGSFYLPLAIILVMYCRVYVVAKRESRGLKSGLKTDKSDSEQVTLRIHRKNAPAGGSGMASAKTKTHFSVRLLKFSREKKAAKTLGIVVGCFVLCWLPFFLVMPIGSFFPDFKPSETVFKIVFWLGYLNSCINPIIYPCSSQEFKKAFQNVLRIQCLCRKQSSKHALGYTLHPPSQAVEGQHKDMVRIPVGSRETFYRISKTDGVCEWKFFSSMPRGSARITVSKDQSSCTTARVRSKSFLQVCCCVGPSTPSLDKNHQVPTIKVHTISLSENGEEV

Adenosine receptor A2a = Adenosine receptor A2a (Homo sapiens, UniProt P29274)
Adenosine receptor A2a, sequence (P29274 whole entry): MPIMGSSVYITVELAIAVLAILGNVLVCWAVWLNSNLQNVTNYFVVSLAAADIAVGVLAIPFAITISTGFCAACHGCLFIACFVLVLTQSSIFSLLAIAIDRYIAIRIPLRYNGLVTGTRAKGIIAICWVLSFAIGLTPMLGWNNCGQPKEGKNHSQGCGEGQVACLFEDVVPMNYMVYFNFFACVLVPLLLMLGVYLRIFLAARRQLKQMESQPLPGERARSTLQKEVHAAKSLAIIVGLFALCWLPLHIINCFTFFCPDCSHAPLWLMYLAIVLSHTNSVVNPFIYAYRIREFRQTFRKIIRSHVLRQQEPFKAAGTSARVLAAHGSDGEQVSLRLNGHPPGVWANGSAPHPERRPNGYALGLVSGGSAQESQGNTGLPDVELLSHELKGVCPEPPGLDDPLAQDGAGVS

Histamine H3 receptor = Histamine H3 receptor (Homo sapiens, UniProt Q9Y5N1)
Histamine H3 receptor, sequence (Q9Y5N1 whole entry): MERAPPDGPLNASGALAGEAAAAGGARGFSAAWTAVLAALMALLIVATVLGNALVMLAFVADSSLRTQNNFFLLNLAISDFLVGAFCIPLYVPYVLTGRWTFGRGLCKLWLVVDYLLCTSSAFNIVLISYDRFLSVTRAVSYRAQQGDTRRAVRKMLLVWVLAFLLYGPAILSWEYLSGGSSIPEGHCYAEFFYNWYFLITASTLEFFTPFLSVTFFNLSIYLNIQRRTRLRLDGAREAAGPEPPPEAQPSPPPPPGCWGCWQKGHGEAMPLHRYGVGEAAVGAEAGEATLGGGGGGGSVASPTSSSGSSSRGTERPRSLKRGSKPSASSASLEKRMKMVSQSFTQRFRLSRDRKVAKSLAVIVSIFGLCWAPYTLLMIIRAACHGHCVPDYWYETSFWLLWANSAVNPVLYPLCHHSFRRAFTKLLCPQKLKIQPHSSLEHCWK

[7] = biological target: 5-hydroxytryptamine receptor 2B (Homo sapiens, UniProt P41595); assay type: functional, cell-based
5-hydroxytryptamine receptor 2B, sequence (P41595 whole entry): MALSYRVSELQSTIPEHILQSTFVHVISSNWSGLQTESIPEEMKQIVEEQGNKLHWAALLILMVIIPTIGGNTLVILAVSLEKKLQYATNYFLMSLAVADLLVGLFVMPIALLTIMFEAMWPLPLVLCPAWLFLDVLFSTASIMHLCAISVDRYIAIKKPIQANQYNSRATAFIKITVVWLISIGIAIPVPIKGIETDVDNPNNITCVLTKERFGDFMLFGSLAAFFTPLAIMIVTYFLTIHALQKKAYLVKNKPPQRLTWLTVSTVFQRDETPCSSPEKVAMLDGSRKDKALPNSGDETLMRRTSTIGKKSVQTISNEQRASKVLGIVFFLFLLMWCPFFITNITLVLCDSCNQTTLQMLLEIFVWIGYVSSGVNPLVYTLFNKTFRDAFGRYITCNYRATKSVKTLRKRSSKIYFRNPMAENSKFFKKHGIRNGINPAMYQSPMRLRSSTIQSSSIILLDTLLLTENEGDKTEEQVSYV

Cannabinoid receptor 1 = Cannabinoid receptor 1 (Homo sapiens, UniProt P21554); assay type: functional, cell-based
Cannabinoid receptor 1, sequence (P21554 whole entry): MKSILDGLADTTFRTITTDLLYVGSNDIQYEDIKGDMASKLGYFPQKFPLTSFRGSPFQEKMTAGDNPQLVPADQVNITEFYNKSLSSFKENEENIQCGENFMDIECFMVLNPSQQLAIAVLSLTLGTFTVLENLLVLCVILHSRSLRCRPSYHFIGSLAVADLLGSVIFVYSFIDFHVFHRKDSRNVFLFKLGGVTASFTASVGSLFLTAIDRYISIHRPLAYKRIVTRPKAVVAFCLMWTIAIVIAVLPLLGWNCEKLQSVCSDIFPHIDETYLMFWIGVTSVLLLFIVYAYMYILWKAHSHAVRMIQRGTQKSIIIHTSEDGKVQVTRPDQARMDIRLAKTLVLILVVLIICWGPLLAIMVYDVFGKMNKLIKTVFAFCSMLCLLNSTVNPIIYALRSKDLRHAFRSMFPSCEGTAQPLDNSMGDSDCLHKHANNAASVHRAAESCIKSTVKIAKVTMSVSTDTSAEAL
Further: assay procedure not described here.

Structure (SMILES): COc1nccnc1NS(=O)(=O)c1ccc(N)cc1
AC50 [1]: > 30 µM

Structure (SMILES): O=C(Nc1cccc2c(=O)cc(-c3nnn[nH]3)oc12)c1ccc(OCCCCc2ccccc2)cc1
AC50 [1]: > 30 µM

Structure (SMILES): NC(=O)c1nc(F)c[nH]c1=O
AC50 (Estrogen receptor): > 30 µM
AC50 [1]: > 30 µM

Structure (SMILES): CN(C)CCCN1C(=O)c2cc([N+](=O)[O-])ccc2Oc2ccccc21
AC50 (Estrogen receptor): > 30 µM
AC50 [1]: > 30 µM

Structure (SMILES): O=S(=O)(O)CCS [2-MERCAPTOETHANESULFONIC ACID]
AC50 (Estrogen receptor): > 30 µM

AC50 [2]: > 10 µM
AC50 [3]: > 30 µM
AC50 [4]: > 30 µM
AC50 [5]: > 30 µM
AC50 [6]: > 30 µM
AC50 (Adenosine receptor A2a): > 30 µM
AC50 (Histamine H3 receptor): > 30 µM
AC50 [7]: > 30 µM
Structure (SMILES): CC1(C)S[C@@H]2[C@H](NC(=O)[C@H](N)c3ccc(O)cc3)C(=O)N2[C@H]1C(=O)O [AMOXICILLIN]

AC50 [4]: > 30 µM
AC50 [5]: > 30 µM
AC50 (Cannabinoid receptor 1): > 30 µM
AC50 [6]: > 30 µM
AC50 (Adenosine receptor A2a): > 30 µM
AC50 (Histamine H3 receptor): 30 µM
AC50 [7]: 25 µM
Structure (SMILES): CNCC[C@@H](Oc1ccccc1C)c1ccccc1 [ATOMOXETINE]

Structure (SMILES): O=C(O)COc1nn(Cc2ccccc2)c2ccccc12 [BENDAZAC]
AC50 (Estrogen receptor): > 30 µM
AC50 [1]: > 30 µM

Structure (SMILES): Cc1ccc([C@@H]2O[C@H](CO)[C@@H](O)[C@H](O)[C@H]2O)cc1Cc1ccc(-c2ccc(F)cc2)s1 [CANAGLIFLOZIN ANHYDROUS]
AC50 (Estrogen receptor): > 30 µM
AC50 [1]: > 30 µM

Structure (SMILES): O=C(O)CCCc1ccc(N(CCCl)CCCl)cc1 [CHLORAMBUCIL]
AC50 (Estrogen receptor): > 30 µM

Structure (SMILES): CN(C)CCN(Cc1ccc(Cl)cc1)c1ccccn1 [CHLOROPYRAMINE]
AC50 [1]: 2.27 µM

Structure (SMILES): O=C(O)c1cc(=O)c2ccccc2o1 [CHROMOCARB]
AC50 (Estrogen receptor): > 30 µM
AC50 [1]: > 30 µM

AC50 [2]: > 10 µM
AC50 [3]: > 10 µM
AC50 [5]: > 30 µM
AC50 (Cannabinoid receptor 1): > 30 µM
AC50 (Adenosine receptor A2a): > 30 µM
AC50 (Histamine H3 receptor): > 10 µM
AC50 [7]: > 10 µM
Structure (SMILES): Clc1cccc(Cl)c1N=C1NCCN1 [CLONIDINE]

Structure (SMILES): CN(CC(=O)O)C(=N)N [CREATINE]
AC50 (Estrogen receptor): > 30 µM
AC50 [1]: > 30 µM

Structure (SMILES): N[C@@H](CSSC[C@H](N)C(=O)O)C(=O)O [CYSTINE]
AC50 [1]: > 30 µM

Structure (SMILES): CN1C[C@H](C(=O)N[C@]2(C)O[C@@]3(O)[C@@H]4CCCN4C(=O)[C@H](Cc4ccccc4)N3C2=O)C[C@@H]2c3cccc4[nH]cc(c34)C[C@H]21 [DIHYDROERGOTAMINE]
AC50 [3]: > 30 µM
AC50 [5]: > 30 µM
AC50 (Cannabinoid receptor 1): > 30 µM
AC50 (Adenosine receptor A2a): > 30 µM
AC50 (Histamine H3 receptor): > 10 µM

Structure (SMILES): CNCC[C@H](Oc1cccc2ccccc12)c1cccs1 [DULOXETINE]
AC50 [4]: 1.4 µM
AC50 [5]: > 30 µM
AC50 (Cannabinoid receptor 1): > 30 µM
AC50 (Adenosine receptor A2a): > 30 µM
AC50 [7]: 12 µM

Reference: ChEMBL document CHEMBL5291721, “A preclinical secondary pharmacology resource illuminates target-adverse drug reaction associations of marketed drugs” (Nat Commun, 2023)
